Patent US20140155406A1, “4-IMIDAZOPYRIDAZIN-1-YL-BENZAMIDES AND 4-IMIDAZOTRIAZIN-1-YL-BENZAMIDES BTK INHIBITORS” (priority 2011, published 2014)

How the values were obtained:
Type in all cases: biochemical
Src enzyme = molecular target: T1, Src enzyme (Homo sapiens, UniProt P12931); test: Src enzyme activity, IMAP fluorescence polarization assay; details: 60 min pre-incubation, 4 μM ATP (Km)
T1 construct: purchased Millipore 14-326
In short: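 Src at 0.2 U/mL final, pre-incubated 60 min at RT with compound (10 μM to 0.316 nM final, 1% DMSO) in pH 7.2 Tris/Mg/Mn buffer. Reaction with 100 nM fluorescein-p34cdc2 peptide and 4 μM ATP (Km) ran 2 h at RT, then IMAP binding and FP at 535 nm. EC50 from curve fit of % control.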

Lyn enzyme = molecular target: T2, Lyn enzyme (Homo sapiens, UniProt P07948); test: Lyn enzyme activity, IMAP fluorescence polarization assay; details: 60 min pre-incubation, 2 μM ATP (Km)
T2 construct: purchased Millipore 14-510
T2 sequence (P07948 whole entry): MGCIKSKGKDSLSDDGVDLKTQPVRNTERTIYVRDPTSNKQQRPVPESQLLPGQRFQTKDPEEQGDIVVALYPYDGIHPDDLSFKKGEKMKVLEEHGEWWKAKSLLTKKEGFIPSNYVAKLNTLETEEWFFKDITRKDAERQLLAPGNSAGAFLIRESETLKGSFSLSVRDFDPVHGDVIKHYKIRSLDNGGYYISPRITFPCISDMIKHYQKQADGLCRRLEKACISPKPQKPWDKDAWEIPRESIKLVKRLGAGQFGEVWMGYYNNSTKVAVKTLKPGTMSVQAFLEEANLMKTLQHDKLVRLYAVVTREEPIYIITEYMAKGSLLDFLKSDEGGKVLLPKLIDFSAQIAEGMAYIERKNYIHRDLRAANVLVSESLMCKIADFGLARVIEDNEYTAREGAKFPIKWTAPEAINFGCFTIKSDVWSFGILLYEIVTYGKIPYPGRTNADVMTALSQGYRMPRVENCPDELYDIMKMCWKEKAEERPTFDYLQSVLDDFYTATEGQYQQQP

Lck enzyme = molecular target: T3, Lck enzyme (Homo sapiens, UniProt P06239); test: Lck enzyme activity, IMAP fluorescence polarization assay; details: 60 min pre-incubation, 6 μM ATP (Km)
T3 construct: purchased Millipore 14-442
T3 sequence (P06239 whole entry): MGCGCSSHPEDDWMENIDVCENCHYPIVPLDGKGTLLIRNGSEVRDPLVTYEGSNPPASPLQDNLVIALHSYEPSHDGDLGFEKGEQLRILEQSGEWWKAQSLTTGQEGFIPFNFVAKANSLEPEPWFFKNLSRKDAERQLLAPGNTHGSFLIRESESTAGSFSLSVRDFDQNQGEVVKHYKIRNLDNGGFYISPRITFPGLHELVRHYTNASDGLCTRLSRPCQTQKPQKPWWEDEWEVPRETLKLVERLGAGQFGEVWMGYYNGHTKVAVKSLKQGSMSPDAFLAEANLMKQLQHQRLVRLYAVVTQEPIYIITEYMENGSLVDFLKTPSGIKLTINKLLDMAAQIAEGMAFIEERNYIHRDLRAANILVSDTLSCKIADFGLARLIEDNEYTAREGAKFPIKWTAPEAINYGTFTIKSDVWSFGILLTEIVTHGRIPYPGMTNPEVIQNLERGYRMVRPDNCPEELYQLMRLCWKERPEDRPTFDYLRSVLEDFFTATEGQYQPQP

Measured: EC50

T1 sequence (P12931 whole entry): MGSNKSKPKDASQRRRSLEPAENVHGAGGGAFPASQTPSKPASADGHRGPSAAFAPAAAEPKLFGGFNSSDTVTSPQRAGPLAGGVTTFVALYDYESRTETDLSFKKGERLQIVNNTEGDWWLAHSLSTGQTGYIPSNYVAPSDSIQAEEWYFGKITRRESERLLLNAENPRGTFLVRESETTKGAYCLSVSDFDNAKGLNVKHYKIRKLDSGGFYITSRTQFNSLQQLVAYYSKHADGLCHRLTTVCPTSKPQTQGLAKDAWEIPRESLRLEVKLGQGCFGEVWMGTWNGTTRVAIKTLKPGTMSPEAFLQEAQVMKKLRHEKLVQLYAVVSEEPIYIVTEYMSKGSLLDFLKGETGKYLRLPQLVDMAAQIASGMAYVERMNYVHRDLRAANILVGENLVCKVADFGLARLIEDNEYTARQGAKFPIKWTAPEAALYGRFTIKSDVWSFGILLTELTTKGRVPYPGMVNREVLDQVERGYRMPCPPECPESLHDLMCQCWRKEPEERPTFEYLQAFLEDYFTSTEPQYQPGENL

CC#CC(=O)N1CCCC[C@H]1c1nc(-c2ccc(C(=O)Nc3cc(CCC)ccn3)cc2)c2c(C)nccn12 [Example 22, (S)-4-(3-(1-but-2-ynoylpiperidin-2-yl)-8-methylimidazo[1,5-a]pyrazin-1-yl)-N-(4-propylpyridin-2-yl)benzamide]
≥ 1000 nM: all assays above

C=CC(=O)N[C@@H](C)c1nc(-c2ccc(C(=O)Nc3cc(CCC)ccn3)cc2)c2c(C)nccn12 [Example 23, (S)-4-(3-(1-acrylamidoethyl)-8-methylimidazo[1,5-a]pyrazin-1-yl)-N-(4-propylpyridin-2-yl)benzamide]
≥ 1000 nM: all assays above

CC#CC(=O)N(C)[C@@H](C)c1nc(-c2ccc(C(=O)Nc3cc(CCC)ccn3)cc2)c2c(C)nccn12 [Example 24, (S)-4-(8-methyl-3-(1-(N-methylbut-2-ynamido)ethyl)imidazo[1,5-a]pyrazin-1-yl)-N-(4-propylpyridin-2-yl)benzamide]
≥ 1000 nM: all assays above

Cc1nccn2c([C@@H]3CCCN3C(=O)/C=C/CN3CCCC3)nc(-c3ccc(C(=O)Nc4ccccn4)cc3)c12 [Example 25, (S,E)-4-(8-methyl-3-(1-(4-(pyrrolidin-1-yl)but-2-enoyl)pyrrolidin-2-yl)imidazo[1,5-a]pyrazin-1-yl)-N-(pyridin-2-yl)benzamide]
≥ 1000 nM: all assays above

C=CC(=O)N1CCCC[C@H]1c1nc(-c2ccc(C(=O)Nc3cc(C(F)(F)F)ccn3)cc2)c2c(C)nccn12 [Example 27, (S)-4-(3-(1-acryloylpiperidin-2-yl)-8-methylimidazo[1,5-a]pyrazin-1-yl)-N-(4-(trifluoromethyl)pyridin-2-yl)benzamide]
≥ 1000 nM: all assays above

CCCc1ccnc(NC(=O)c2ccc(-c3nc([C@H](C)NC(=O)/C=C/CN(C)C)n4ccnc(C)c34)cc2)c1 [Example 28, (S,E)-4-(3-(1-(4-(dimethylamino)but-2-enamido)ethyl)-8-methylimidazo[1,5-a]pyrazin-1-yl)-N-(4-propylpyridin-2-yl)benzamide]
≥ 1000 nM: all assays above

CC#CC(=O)N1CCCC[C@H]1c1nc(-c2ccc(C(=O)Nc3cc(C(F)(F)F)ccn3)cc2)c2c(C)nccn12 [Example 29, (S)-4-(3-(1-but-2-ynoylpiperidin-2-yl)-8-methylimidazo[1,5-a]pyrazin-1-yl)-N-(4-(trifluoromethyl)pyridin-2-yl)benzamide]
≥ 1000 nM: all assays above

CCCc1ccnc(NC(=O)c2ccc(-c3nc([C@@H]4CCCCN4C(=O)/C=C/CN4CCCC4)n4ccnc(C)c34)cc2)c1 [Example 35, (S,E)-4-(8-methyl-3-(1-(4-(pyrrolidin-1-yl)but-2-enoyl)piperidin-2-yl)imidazo[1,5-a]pyrazin-1-yl)-N-(4-propylpyridin-2-yl)benzamide]
≥ 1000 nM: all assays above

CCCc1ccnc(NC(=O)c2ccc(-c3nc([C@H](C)NC(=O)/C=C/COC)n4ccnc(C)c34)cc2)c1 [Example 36, (S,E)-4-(3-(1-(4-methoxybut-2-enamido)ethyl)-8-methylimidazo[1,5-a]pyrazin-1-yl)-N-(4-propylpyridin-2-yl)benzamide]
≥ 1000 nM: all assays above

Cc1nccn2c([C@@H]3CCCCN3C(=O)/C=C/CN(C)C)nc(-c3ccc(C(=O)Nc4cc(C(F)(F)F)ccn4)cc3)c12 [Example 37, (S,E)-4-(3-(1-(4-(dimethylamino)but-2-enoyl)piperidin-2-yl)-8-methylimidazo[1,5-a]pyrazin-1-yl)-N-(4-(trifluoromethyl)pyridin-2-yl)benzamide]
≥ 1000 nM: all assays above

CC#CC(=O)N[C@@H](C)c1nc(-c2ccc(C(=O)Nc3cc(CCC)ccn3)cc2)c2c(C)nccn12 [Example 38, (S)-4-(3-(1-but-2-ynamidoethyl)-8-methylimidazo[1,5-a]pyrazin-1-yl)-N-(4-propylpyridin-2-yl)benzamide]
≥ 1000 nM: all assays above
